From PubChem BioAssay (NCI)
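Results reflect a 48-hour exposure of cells in 96-well plates to compound at five concentrations. Definition used: TGI = concentration required for complete inhibition of growth.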

Tests used:
Test in all cases: NCI anticancer screen, dose series, 48 h
786-0 renal = system: 786-0 renal
A549 NSCLC = system: A549 NSCLC
ACHN renal = system: ACHN renal
CCRF-CEM leukemia = system: CCRF-CEM leukemia
COLO 205 colon = system: COLO 205 colon
DLD-1 colon = system: DLD-1 colon
DMS 114 small cell lung = system: DMS 114 small cell lung
DMS 273 small cell lung = system: DMS 273 small cell lung
EKVX NSCLC = system: EKVX NSCLC
HCC-2998 colon = system: HCC-2998 colon
HCT-15 colon = system: HCT-15 colon
HL-60(TB) leukemia = system: HL-60(TB) leukemia
HOP-18 NSCLC = system: HOP-18 NSCLC
HOP-92 NSCLC = system: HOP-92 NSCLC
HT29 colon = system: HT29 colon
IGROV1 ovarian = system: IGROV1 ovarian
K-562 leukemia = system: K-562 leukemia
KM12 colon = system: KM12 colon
LXFL 529 NSCLC = system: LXFL 529 NSCLC
M14 melanoma = system: M14 melanoma
M19-MEL melanoma = system: M19-MEL melanoma
MALME-3M melanoma = system: MALME-3M melanoma
MOLT-4 leukemia = system: MOLT-4 leukemia
NCI-H226 lung = system: NCI-H226 lung
NCI-H23 lung = system: NCI-H23 lung
NCI-H460 lung = system: NCI-H460 lung
NCI-H522 lung = system: NCI-H522 lung
OVCAR-3 ovarian = system: OVCAR-3 ovarian
OVCAR-5 ovarian = system: OVCAR-5 ovarian
OVCAR-8 ovarian = system: OVCAR-8 ovarian
RPMI-8226 leukemia = system: RPMI-8226 leukemia
RXF 393 renal = system: RXF 393 renal
SF-268 CNS = system: SF-268 CNS
SF-295 CNS = system: SF-295 CNS
SF-539 CNS = system: SF-539 CNS
SK-MEL-2 melanoma = system: SK-MEL-2 melanoma
SK-MEL-28 melanoma = system: SK-MEL-28 melanoma
SK-MEL-5 melanoma = system: SK-MEL-5 melanoma
SK-OV-3 ovarian = system: SK-OV-3 ovarian
SN12C renal = system: SN12C renal
SNB-19 CNS = system: SNB-19 CNS
SR leukemia = system: SR leukemia
SW-620 colon = system: SW-620 colon
TK-10 renal = system: TK-10 renal
U251 CNS = system: U251 CNS
UACC-257 melanoma = system: UACC-257 melanoma
UO-31 renal = system: UO-31 renal
XF 498 CNS = system: XF 498 CNS
CAKI-1 renal = system: CAKI-1 renal
HOP-62 NSCLC = system: HOP-62 NSCLC
KM20L2 colon = system: KM20L2 colon
LOX IMVI melanoma = system: LOX IMVI melanoma
OVCAR-4 ovarian = system: OVCAR-4 ovarian
SNB-75 CNS = system: SNB-75 CNS
UACC-62 melanoma = system: UACC-62 melanoma
A498 renal = system: A498 renal
HCT-116 colon = system: HCT-116 colon
SNB-78 CNS = system: SNB-78 CNS

## CC1CCC2(OCCO2)[C@]2(C)CC(O)C(=O)C=C12 (stereo partly specified)
786-0 renal
  TGI: > 100 µM
A549 NSCLC
  TGI: > 100 µM
ACHN renal
  TGI: > 100 µM
CCRF-CEM leukemia
  TGI: > 100 µM
COLO 205 colon
  TGI: > 100 µM
DLD-1 colon
  TGI: > 100 µM
DMS 114 small cell lung
  TGI: > 100 µM
DMS 273 small cell lung
  TGI: > 100 µM
EKVX NSCLC
  TGI: > 100 µM
HCC-2998 colon
  TGI: > 100 µM
HCT-15 colon
  TGI: > 100 µM
HL-60(TB) leukemia
  TGI: > 100 µM
HOP-18 NSCLC
  TGI: > 100 µM
HOP-92 NSCLC
  TGI: > 100 µM
HT29 colon
  TGI: > 100 µM
IGROV1 ovarian
  TGI: > 100 µM
K-562 leukemia
  TGI: > 100 µM
KM12 colon
  TGI: > 100 µM
LXFL 529 NSCLC
  TGI: > 100 µM
M14 melanoma
  TGI: > 100 µM
M19-MEL melanoma
  TGI: > 100 µM
MALME-3M melanoma
  TGI: > 100 µM
MOLT-4 leukemia
  TGI: > 100 µM
NCI-H226 lung
  TGI: > 100 µM
NCI-H23 lung
  TGI: > 100 µM
NCI-H460 lung
  TGI: > 100 µM
NCI-H522 lung
  TGI: > 100 µM
OVCAR-3 ovarian
  TGI: > 100 µM
OVCAR-5 ovarian
  TGI: > 100 µM
OVCAR-8 ovarian
  TGI: > 100 µM
RPMI-8226 leukemia
  TGI: > 100 µM
RXF 393 renal
  TGI: > 100 µM
SF-268 CNS
  TGI: > 100 µM
SF-295 CNS
  TGI: > 100 µM
SF-539 CNS
  TGI: > 100 µM
SK-MEL-2 melanoma
  TGI: > 100 µM
SK-MEL-28 melanoma
  TGI: > 100 µM
SK-MEL-5 melanoma
  TGI: > 100 µM
SK-OV-3 ovarian
  TGI: > 100 µM
SN12C renal
  TGI: > 100 µM
SNB-19 CNS
  TGI: > 100 µM
SR leukemia
  TGI: > 100 µM
SW-620 colon
  TGI: > 100 µM
TK-10 renal
  TGI: > 100 µM
U251 CNS
  TGI: > 100 µM
UACC-257 melanoma
  TGI: > 100 µM
UO-31 renal
  TGI: > 100 µM
XF 498 CNS
  TGI: > 100 µM

## CCCCCCCCCCCCCC(=O)OC1C(O)C(CO)OC(OC)C1NC(=O)N(CCCl)N=O (stereo unspecified)
A549 NSCLC
  TGI: > 100 µM
ACHN renal
  TGI: > 100 µM
CAKI-1 renal
  TGI: > 100 µM
COLO 205 colon
  TGI: > 100 µM
DLD-1 colon
  TGI: > 100 µM
DMS 273 small cell lung
  TGI: > 100 µM
HCC-2998 colon
  TGI: > 100 µM
HCT-15 colon
  TGI: > 100 µM
HOP-18 NSCLC
  TGI: > 100 µM
HOP-62 NSCLC
  TGI: > 100 µM
HT29 colon
  TGI: > 100 µM
IGROV1 ovarian
  TGI: > 100 µM
K-562 leukemia
  TGI: > 100 µM
KM12 colon
  TGI: > 100 µM
KM20L2 colon
  TGI: > 100 µM
LOX IMVI melanoma
  TGI: 89.9 µM
LXFL 529 NSCLC
  TGI: > 100 µM
M14 melanoma
  TGI: > 100 µM
M19-MEL melanoma
  TGI: > 100 µM
MALME-3M melanoma
  TGI: > 100 µM
MOLT-4 leukemia
  TGI: 59.8 µM
NCI-H226 lung
  TGI: > 100 µM
NCI-H23 lung
  TGI: > 100 µM
NCI-H460 lung
  TGI: > 100 µM
NCI-H522 lung
  TGI: > 100 µM
OVCAR-3 ovarian
  TGI: > 100 µM
OVCAR-4 ovarian
  TGI: > 100 µM
OVCAR-5 ovarian
  TGI: > 100 µM
OVCAR-8 ovarian
  TGI: > 100 µM
RPMI-8226 leukemia
  TGI: > 100 µM
RXF 393 renal
  TGI: > 100 µM
SF-268 CNS
  TGI: > 100 µM
SF-295 CNS
  TGI: > 100 µM
SF-539 CNS
  TGI: 63.5 µM
SK-MEL-2 melanoma
  TGI: > 100 µM
SK-MEL-28 melanoma
  TGI: > 100 µM
SK-MEL-5 melanoma
  TGI: > 100 µM
SN12C renal
  TGI: > 100 µM
SNB-19 CNS
  TGI: > 100 µM
SNB-75 CNS
  TGI: > 100 µM
SR leukemia
  TGI: 93.4 µM
SW-620 colon
  TGI: > 100 µM
TK-10 renal
  TGI: > 100 µM
U251 CNS
  TGI: > 100 µM
UACC-257 melanoma
  TGI: 86.8 µM
UACC-62 melanoma
  TGI: > 100 µM
UO-31 renal
  TGI: > 100 µM
XF 498 CNS
  TGI: > 100 µM

## CC(C)NCCCC(C)Nc1ccnc2ccc3nn(C)nc3c12 (stereo unspecified)
786-0 renal
  TGI: > 100 µM
A498 renal
  TGI: > 100 µM
A549 NSCLC
  TGI: > 100 µM
ACHN renal
  TGI: > 100 µM
CAKI-1 renal
  TGI: > 100 µM
CCRF-CEM leukemia
  TGI: > 100 µM
COLO 205 colon
  TGI: > 100 µM
DLD-1 colon
  TGI: > 100 µM
DMS 114 small cell lung
  TGI: > 100 µM
DMS 273 small cell lung
  TGI: > 100 µM
EKVX NSCLC
  TGI: > 100 µM
HCC-2998 colon
  TGI: > 100 µM
HCT-116 colon
  TGI: > 100 µM
HL-60(TB) leukemia
  TGI: > 100 µM
HOP-18 NSCLC
  TGI: > 100 µM
HOP-62 NSCLC
  TGI: > 100 µM
HT29 colon
  TGI: > 100 µM
IGROV1 ovarian
  TGI: > 100 µM
K-562 leukemia
  TGI: > 100 µM
KM12 colon
  TGI: > 100 µM
LOX IMVI melanoma
  TGI: > 100 µM
LXFL 529 NSCLC
  TGI: > 100 µM
M14 melanoma
  TGI: > 100 µM
M19-MEL melanoma
  TGI: > 100 µM
MALME-3M melanoma
  TGI: > 100 µM
MOLT-4 leukemia
  TGI: > 100 µM
NCI-H226 lung
  TGI: > 100 µM
NCI-H23 lung
  TGI: > 100 µM
NCI-H460 lung
  TGI: > 100 µM
NCI-H522 lung
  TGI: > 100 µM
OVCAR-5 ovarian
  TGI: > 100 µM
OVCAR-8 ovarian
  TGI: > 100 µM
RPMI-8226 leukemia
  TGI: > 100 µM
SF-268 CNS
  TGI: > 100 µM
SF-295 CNS
  TGI: > 100 µM
SF-539 CNS
  TGI: > 100 µM
SK-MEL-5 melanoma
  TGI: > 100 µM
SK-OV-3 ovarian
  TGI: > 100 µM
SN12C renal
  TGI: > 100 µM
SNB-19 CNS
  TGI: > 100 µM
SNB-75 CNS
  TGI: > 100 µM
SNB-78 CNS
  TGI: > 100 µM
SR leukemia
  TGI: > 100 µM
SW-620 colon
  TGI: > 100 µM
TK-10 renal
  TGI: > 100 µM
U251 CNS
  TGI: > 100 µM
UACC-257 melanoma
  TGI: > 100 µM
UACC-62 melanoma
  TGI: > 100 µM
UO-31 renal
  TGI: > 100 µM
XF 498 CNS
  TGI: > 100 µM
